Experimental findings from EP4755886A1 (Chengdu Chipscreen Pharmaceutical Ltd., priority 2023, dated 2025) are described below.

The test system of test [1] is wild-type HCT-116 cells. As to the kind of experiment: Cell proliferation (MTS), wild-type HCT-116. The test is classed as cell-based. Conditions: Homo sapiens, 240 h; wild-type HCT-116, 10 days with compound, MTS reading; read-out: IC50 HCT116 WT. The method, then: (§1) MTAP^-/- HCT-116 and wild-type HCT-116 cell strains were cultured in complete medium McCoy's 5A (Gibco, 16600082)/10% FBS (Gibco, 10099141C)/1% p/s (Gibco, 15140122) to evaluate the enhanced inhibitory effect of the compounds against the proliferation selectivity of MTAP^-/- HCT-116 cells. On day 0, MTAP^-/- HCT-116 cells or wild-type HCT-116 cells were added to a 96-well cell culture plate (Corning, 3599) at 100 cells/well, and the plate was incubated in an incubator at 37 °C with 5% CO2. The compound was diluted in a 3-fold gradient with DMSO (Sigma, D5879) (initial concentration: 20 µM, 3-fold dilution, 8 concentration points in total). On day 1, the compound was diluted to multiple concentration points, and the cells were treated separately and incubated in the incubator at 37 °C with 5% CO2 for another 10 days. On Day 11, 20 µL of MTS (CellTiter 96® AQueous One Solution Cell Proliferation Assay) (Promega, G3581) was added to each well. […] In the formula, Y represents the inhibition rate, X represents the logarithm of the compound concentration, Top represents the maximum response (the inhibition rate at the maximum compound concentration), Bottom represents the baseline response (the inhibition rate where the compound concentration was 0), Hill Slope represents the slope of the IC50 curve, and IC50 represents the half maximal inhibitory concentration. Table 1. IC50 (µM)

Test [2] deals with MTAP^-/- HCT-116 cells. The test is described as follows: Cell proliferation (MTS), MTAP-/- HCT-116. The following applies: for Selectivity: HCT116 WT IC50 relative to HCT116 MTAP-/- IC50; for IC50: Homo sapiens, 240 h, MTAP-/- HCT-116, 10 days with compound, MTS reading, read-out: IC50 HCT116 MTAP-/-. The test is classed as cell-based, human.
Source text: The colon cancer cell strain HCT-116 (purchased from Nanjing Cobioer) was co-transfected with the gene editing tool CRISPR/Cas9 and sgRNA, and the MTAP^-/- HCT-116 cell strain with biallelic inactivation of MTAP was obtained by assays such as Western Blotting and Sanger sequencing. The MTAP^-/- HCT-116 cell strain was used for compound selectivity screening and evaluation based on the synergistic mechanism of MTAP deletion and PRMT5, including a symmetric dimethylarginine (SDMA) level test, a cell proliferation test, and the like.
as §1, with “On” for “MTAP^-/- HCT-116 and wild-type HCT-116 cell strains were cultured in complete medium McCoy's 5A (Gibco, 16600082)/10% FBS (Gibco, 10099141C)/1% p/s (Gibco, 15140122) to evaluate the enhanced inhibitory effect of the compounds against the proliferation selectivity of MTAP^-/- HCT-116 cells. On”, “concentration.” for “concentration. Table 1. IC50 (µM)”

Consider `Cc1c(C#Cc2ccc3c(c2)OC[C@H]3N(C)C(=O)c2ccc3nc(N)c4cnn(C)c4c3c2)cnn1C` [Compound 29A, (S)-4-amino-N-(6-((1,5-dimethyl-1H-pyrazol-4-yl)ethynyl)-2,3-dihydrobenzofuran-3-yl)-N,1-dimethyl-1H-pyrazolo[4,3-c]quinoline-8-carboxamide], for which, in test [1], the IC50 came to 0.48 µM. In test [2], the Selectivity worked out at 133 and the IC50 turned out to be 0.0036 µM.

Regarding `Cc1c(C#Cc2ccc3c(c2)OC[C@H]3N(C)C(=O)c2cc3c(cc2Cl)nc(N)c2cnn(C)c23)cnn1C` [Compound 22A, (S)-4-amino-7-chloro-N-(6-((1,5-dimethyl-1H-pyrazol-4-yl)ethynyl)-2,3-dihydrobenzofuran-3-yl)-N,1-dimethyl-1H-pyrazolo[4,3-c]quinoline-8-carboxamide], the IC50 in test [1] amounted to 0.055 µM; in test [2], 0.001 µM. For the same compound, in test [2], the Selectivity was 55.

On to `CC(C)n1cc(C#Cc2ccc3c(c2)OCC3N(C)C(=O)c2cc3c(cc2F)nc(N)c2cnn(C)c23)cn1` (stereo not drawn) [Compound 13, 4-amino-7-fluoro-N-(6-((1-isopropyl-1H-pyrazol-4-yl)ethynyl)-2,3-dihydrobenzof uran-3-yl)-N,1-dimethyl-1H-pyrazolo[4,3-c]quinoline-8-carboxamide], for which the IC50 in test [1] amounted to 0.607 µM. Moreover, in test [2], the Selectivity stood at 55 and the IC50 amounted to 0.011 µM.

As for `CN(C(=O)c1cc2c3c(c(N)nc2cc1Cl)COC3)[C@@H]1COc2cc(C#Cc3ccc4cnn(C)c4c3)ccc21` [Compound 62A, (S)-4-amino-7-chloro-N-methyl-N-(6-((1-methyl-1H-indazol-6-yl)ethynyl)-2,3-dihydrobenzofuran-3-yl)-1,3-dihydrofuro[3,4-c]quinoline-8-carboxamide], the IC50 in test [1] is 1.26 µM. Further, in test [2], the Selectivity is on record as 79 and the IC50 came out at 0.0159 µM.

For `Cc1ccncc1C#Cc1ccc2c(c1)OCC2N(C)C(=O)c1cc2c(cc1F)nc(N)c1cnn(C)c12` (stereo not drawn) [Compound 44, 4-amino-7-fluoro-N,1-dimethyl-N-(6-((4-methylpyridin-3-yl)ethynyl)-2,3-dihydrobenzofuran-3-yl)-1H-pyrazolo[4,3-c]quinoline-8-carboxamide], the IC50 in test [1] was determined as 0.736 µM. Moreover, in test [2], the Selectivity is 67 and the IC50 is 0.011 µM.

Regarding `CN(C(=O)c1cc2c(cc1Cl)nc(N)c1cnn(C)c12)C1COc2cc(C#Cc3cnn(C)c3)ccc21` (stereo not drawn) [Compound 9, 4-amino-7-chloro-N,1-dimethyl-N-(6-((1-methyl-1H-pyrazol-4-yl)ethynyl)-2,3-dihydrobenzofuran-3-yl)-1H-pyrazolo[4,3-c]quinoline-8-carboxamide], the IC50 in test [1] was 0.0977 µM; in test [2] it was 0.0009 µM. Besides, the Selectivity in test [2] is on record as 109.

Take `CN(C(=O)c1cc2c(cc1Cl)nc(N)c1cnn(C)c12)C1COc2cc(C#Cc3cnn(C4CC4)c3)ccc21` (stereo not drawn) [Compound 8, 4-amino-7-chloro-N-(6-((1-cyclopropyl-1H-pyrazol-4-yl)ethynyl)-2,3-dihydrobenzofuran-3-yl)-N,1-dimethyl-1H-pyrazolo[4,3-c]quinoline-8-carboxamide]: the IC50 in test [1] was 0.141 µM. In test [2], the Selectivity was determined as 47 and the IC50 came to 0.003 µM.

For the compound `Cc1cncc(C#Cc2ccc3c(c2)OC[C@H]3N(C)C(=O)c2cc3c(cc2F)nc(N)c2cnn(C)c23)c1` [Compound 47A, (S)-4-amino-7-fluoro-N,1-dimethyl-N-(6-((5-methylpyridin-3-yl)ethynyl)-2,3-dihydrobenzofuran-3-yl)-1H-pyrazolo[4,3-c]quinoline-8-carboxamide], the IC50 in test [1] was found to be 0.598 µM; in test [2] it was 0.0052 µM. In test [2], the Selectivity was 115.
